# Experimental data reported in PubChem BioAssay AID220 (DTP/NCI, 2004).
# Where “and” joins values, the source holds several entries; their conditions need not be identical. Identical values can stand only once. Results filed as inconclusive are left out.
# Test system: CD8F1 mice, subcutaneous mammary adenocarcinoma, T/C%
# Experiment: NCI In Vivo Anticancer Drug Screen. Data for tumor model Mammary Adenocarcinoma CD8F1 (subcutaneous) in CD8F1
# Settings: higher = larger tumour
# In short: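 Ratio of treated to vehicle-control outcome, based on either survival or tumor size, in mice bearing transplantable tumors given the test compound.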
# [1] = endpoint: median tumor weight (est.), dose: 25.0 mg/kg/injection, schedule: Q07DX005 (ip), vehicle: Klucel (hydroxypropylcellulose) (HPC)
# [2] = endpoint: median tumor weight change, dose: 125.0 mg/kg/injection, schedule: Q01DX001 (ip), vehicle: saline
# [3] = endpoint: median tumor weight change, dose: 250.0 mg/kg/injection, schedule: Q01DX001 (ip), vehicle: saline
smiles,measurement,setting,value
CN1N=C(N)c2cn(C3OC(COP(=O)(O)O)C(O)C3O)c3ncnc1c23 (stereo not drawn),T/C,"endpoint: median tumor weight (est.), dose: 9.37 mg/kg/injection, schedule: Q07DX005 (ip), vehicle: other",46 % of control
same,T/C,"endpoint: median tumor weight (est.), dose: 12.5 mg/kg/injection, schedule: Q07DX005 (ip), vehicle: water",121 % of control
same,T/C,"endpoint: median tumor weight (est.), dose: 18.75 mg/kg/injection, schedule: Q07DX005 (ip), vehicle: other",52 % of control
same,T/C,"endpoint: median tumor weight (est.), dose: 25.0 mg/kg/injection, schedule: Q07DX005 (ip), vehicle: water",54 % of control
same,T/C,"endpoint: median tumor weight (est.), dose: 37.5 mg/kg/injection, schedule: Q07DX005 (ip), vehicle: other",25 % of control
same,T/C,"endpoint: median tumor weight (est.), dose: 50.0 mg/kg/injection, schedule: Q07DX005 (ip), vehicle: water",25 % of control
same,T/C,"endpoint: median tumor weight (est.), dose: 75.0 mg/kg/injection, schedule: Q07DX005 (ip), vehicle: other",16 % of control
same,T/C,"endpoint: median tumor weight (est.), dose: 100.0 mg/kg/injection, schedule: Q07DX005 (ip), vehicle: water",7 % of control
same,T/C,"endpoint: median tumor weight (est.), dose: 150.0 mg/kg/injection, schedule: Q07DX005 (ip), vehicle: other",5 % of control
C=C(Cl)C(=NC(C)(C)C)Nc1ccccc1C,T/C,"endpoint: median tumor weight change, dose: 31.25 mg/kg/injection, schedule: Q01DX001 (ip), vehicle: Klucel (hydroxypropylcellulose) (HPC)",86 % of control
same,T/C,"endpoint: median tumor weight change, dose: 62.5 mg/kg/injection, schedule: Q01DX001 (ip), vehicle: Klucel (hydroxypropylcellulose) (HPC)",85 % of control
CCOC(=O)C(CC(C)C)NC(=O)C(Cc1ccc(N(CCCl)CCCl)cc1)NC(C)=O (stereo not drawn),T/C,"endpoint: median tumor weight (est.), dose: 8.0 mg/kg/injection, schedule: Q07DX005 (ip), vehicle: saline with Tween-80",112 % of control
same,T/C,"endpoint: median tumor weight (est.), dose: 32.0 mg/kg/injection, schedule: Q07DX005 (ip), vehicle: saline with Tween-80",49 % of control and 58 % of control
same,T/C,"endpoint: median tumor weight (est.), dose: 64.0 mg/kg/injection, schedule: Q07DX005 (ip), vehicle: saline with Tween-80",9 % of control
NC(Cc1ccc(N(CCCl)Cc2ccccc2)cc1)C(=O)O (stereo not drawn),T/C,"endpoint: median tumor weight (est.), dose: 6.25 mg/kg/injection, schedule: Q07DX005 (ip), vehicle: distilled water + Tween-80",84 % of control
same,T/C,"endpoint: median tumor weight (est.), dose: 12.5 mg/kg/injection, schedule: Q07DX005 (ip), vehicle: distilled water + Tween-80",60 % of control
same,T/C,"endpoint: median tumor weight (est.), dose: 25.0 mg/kg/injection, schedule: Q07DX005 (ip), vehicle: distilled water + Tween-80",79 % of control
same,T/C,"endpoint: median tumor weight (est.), dose: 50.0 mg/kg/injection, schedule: Q07DX005 (ip), vehicle: distilled water + Tween-80",25 % of control
COC1C(O)C(C)OC(OC2C(Oc3cccc4c(O)c5c(=O)oc6ccc(C)c7c(=O)oc(c34)c5c67)OC(C)C(O)C2O)C1O (stereo not drawn),T/C,"endpoint: median tumor weight (est.), dose: 12.5 mg/kg/injection, schedule: Q07DX005 (ip), vehicle: Klucel (hydroxypropylcellulose) (HPC)",73 % of control
same,T/C,[1],75 % of control
same,T/C,"endpoint: median tumor weight (est.), dose: 50.0 mg/kg/injection, schedule: Q07DX005 (ip), vehicle: Klucel (hydroxypropylcellulose) (HPC)",50 % of control
COC(=O)CC(N)C(=O)O (stereo not drawn),T/C,[2],60 % of control
same,T/C,[3],61 % of control
O=C1OC(=O)[C@H]2[C@@H]1[C@H]1C=C[C@@H]2OC1=O,T/C,[2],154 % of control
same,T/C,[3],98 % of control
same,T/C,"endpoint: median tumor weight change, dose: 500.0 mg/kg/injection, schedule: Q01DX001 (ip), vehicle: saline",91 % of control
same,T/C,"endpoint: median tumor weight change, dose: 1000.0 mg/kg/injection, schedule: Q01DX001 (ip), vehicle: saline",95 % of control
same,T/C,"endpoint: median tumor weight change, dose: 2000.0 mg/kg/injection, schedule: Q01DX001 (ip), vehicle: saline",40 % of control
COC1=C(C)C(=O)C2=C(C1=O)C1C3CC4=C(C(=O)C(OC)=C(C)C4=O)C(CNC(=O)C(C)=O)N3C(C#N)C(C2)N1C (stereo not drawn),T/C,"endpoint: median tumor weight change, dose: 0.62 mg/kg/injection, schedule: Q01DX001 (ip), vehicle: Klucel (hydroxypropylcellulose) (HPC)",114 % of control
same,T/C,"endpoint: median tumor weight change, dose: 0.63 mg/kg/injection, schedule: Q01DX001 (ip), vehicle: Klucel (hydroxypropylcellulose) (HPC)",119 % of control
same,T/C,"endpoint: median tumor weight change, dose: 1.2 mg/kg/injection, schedule: Q01DX001 (ip), vehicle: Klucel (hydroxypropylcellulose) (HPC)",109 % of control
same,T/C,"endpoint: median tumor weight change, dose: 1.25 mg/kg/injection, schedule: Q01DX001 (ip), vehicle: Klucel (hydroxypropylcellulose) (HPC)",96 % of control
same,T/C,"endpoint: median tumor weight change, dose: 2.5 mg/kg/injection, schedule: Q01DX001 (ip), vehicle: Klucel (hydroxypropylcellulose) (HPC)",98 % of control and 114 % of control
CN(C)N=Nc1ccccc1,T/C,[1],87 % of control
same,T/C,"endpoint: median tumor weight (est.), dose: 100.0 mg/kg/injection, schedule: Q07DX005 (ip), vehicle: Klucel (hydroxypropylcellulose) (HPC)",78 % of control
Cc1c2cc[n+](C)cc2c(C)c2c1[nH]c1ccc(O)cc12,T/C,"endpoint: median tumor weight change, dose: 0.62 mg/kg/injection, schedule: Q01DX001 (ip), vehicle: saline",101 % of control
same,T/C,"endpoint: median tumor weight change, dose: 1.25 mg/kg/injection, schedule: Q01DX001 (ip), vehicle: saline",67 % of control
same,T/C,"endpoint: median tumor weight change, dose: 2.5 mg/kg/injection, schedule: Q01DX001 (ip), vehicle: saline",60 % of control
NC(=O)NO,T/C,"endpoint: median tumor weight (est.), dose: 25.0 mg/kg/injection, schedule: Q07DX005 (ip), vehicle: saline",67 % of control
same,T/C,"endpoint: median tumor weight (est.), dose: 100.0 mg/kg/injection, schedule: Q07DX005 (ip), vehicle: saline",116 % of control
same,T/C,"endpoint: median tumor weight (est.), dose: 200.0 mg/kg/injection, schedule: Q07DX005 (ip), vehicle: saline",56 % of control
same,T/C,"endpoint: median tumor weight (est.), dose: 400.0 mg/kg/injection, schedule: Q07DX005 (ip), vehicle: saline",48 % of control
same,T/C,"endpoint: median tumor weight (est.), dose: 800.0 mg/kg/injection, schedule: Q07DX005 (ip), vehicle: saline",59 % of control
COC1C=CC23c4cc5c(cc4C(O)OC2CN(C)C3C1)OCO5 (stereo not drawn),T/C,"endpoint: median tumor weight (est.), dose: 18.75 mg/kg/injection, schedule: Q07DX005 (ip), vehicle: saline",154 % of control
same,T/C,"endpoint: median tumor weight (est.), dose: 37.5 mg/kg/injection, schedule: Q07DX005 (ip), vehicle: saline",205 % of control
same,T/C,"endpoint: median tumor weight (est.), dose: 75.0 mg/kg/injection, schedule: Q07DX005 (ip), vehicle: saline",88 % of control
same,T/C,"endpoint: median tumor weight (est.), dose: 150.0 mg/kg/injection, schedule: Q07DX005 (ip), vehicle: saline",120 % of control
C#C[C@]1(O)CC[C@H]2[C@@H]3CCc4cc(O)ccc4[C@H]3CC[C@@]21C,T/C,"endpoint: median tumor weight change, dose: 12.5 mg/kg/injection, schedule: Q01DX001 (ip), vehicle: Klucel (hydroxypropylcellulose) (HPC)",92 % of control
same,T/C,"endpoint: median tumor weight change, dose: 25.0 mg/kg/injection, schedule: Q01DX001 (ip), vehicle: Klucel (hydroxypropylcellulose) (HPC)",78 % of control
same,T/C,"endpoint: median tumor weight change, dose: 50.0 mg/kg/injection, schedule: Q01DX001 (ip), vehicle: Klucel (hydroxypropylcellulose) (HPC)",75 % of control
same,T/C,"endpoint: median tumor weight change, dose: 56.0 mg/kg/injection, schedule: Q01DX001 (ip), vehicle: Klucel (hydroxypropylcellulose) (HPC)",60 % of control
same,T/C,"endpoint: median tumor weight change, dose: 100.0 mg/kg/injection, schedule: Q01DX001 (ip), vehicle: Klucel (hydroxypropylcellulose) (HPC)",63 % of control
same,T/C,"endpoint: median tumor weight change, dose: 112.0 mg/kg/injection, schedule: Q01DX001 (ip), vehicle: Klucel (hydroxypropylcellulose) (HPC)",75 % of control
same,T/C,"endpoint: median tumor weight change, dose: 200.0 mg/kg/injection, schedule: Q01DX001 (ip), vehicle: Klucel (hydroxypropylcellulose) (HPC)",46 % of control
same,T/C,"endpoint: median tumor weight change, dose: 225.0 mg/kg/injection, schedule: Q01DX001 (ip), vehicle: Klucel (hydroxypropylcellulose) (HPC)",66 % of control
same,T/C,"endpoint: median tumor weight change, dose: 400.0 mg/kg/injection, schedule: Q01DX001 (ip), vehicle: Klucel (hydroxypropylcellulose) (HPC)",52 % of control
same,T/C,"endpoint: median tumor weight change, dose: 450.0 mg/kg/injection, schedule: Q01DX001 (ip), vehicle: Klucel (hydroxypropylcellulose) (HPC)",101 % of control
same,T/C,"endpoint: median tumor weight change, dose: 450.0 mg/kg/injection, schedule: Q01DX001 (ip), vehicle: saline with Tween-80",101 % of control
CC(=O)Nc1ccc(C(=O)C=O)cc1,T/C,"endpoint: median tumor weight (est.), dose: 12.5 mg/kg/injection, schedule: Q07DX005 (ip), vehicle: saline with Tween-80",114 % of control
same,T/C,"endpoint: median tumor weight (est.), dose: 25.0 mg/kg/injection, schedule: Q07DX005 (ip), vehicle: saline with Tween-80",117 % of control
same,T/C,"endpoint: median tumor weight (est.), dose: 50.0 mg/kg/injection, schedule: Q07DX005 (ip), vehicle: saline with Tween-80",84 % of control
same,T/C,"endpoint: median tumor weight (est.), dose: 100.0 mg/kg/injection, schedule: Q07DX005 (ip), vehicle: saline with Tween-80",93 % of control
same,T/C,"endpoint: median tumor weight (est.), dose: 200.0 mg/kg/injection, schedule: Q07DX005 (ip), vehicle: saline with Tween-80",80 % of control
COC1OC(CO)C(O)C(NC(=O)N(C)N=O)C1O (stereo not drawn),T/C,[2],86 % of control
CC1=C2CC(C)(C)/C=C\C(=O)/C(C)=C\C3=C[C@H](C)C[C@]3(O2)C1=O,T/C,"endpoint: median tumor weight (est.), dose: 1.5 mg/kg/injection, schedule: Q07DX005 (ip), vehicle: Klucel (hydroxypropylcellulose) (HPC)",78 % of control
same,T/C,"endpoint: median tumor weight (est.), dose: 1.5 mg/kg/injection, schedule: Q07DX005 (ip), vehicle: saline",94 % of control
same,T/C,"endpoint: median tumor weight (est.), dose: 3.0 mg/kg/injection, schedule: Q07DX005 (ip), vehicle: Klucel (hydroxypropylcellulose) (HPC)",212 % of control
same,T/C,"endpoint: median tumor weight (est.), dose: 6.0 mg/kg/injection, schedule: Q07DX005 (ip), vehicle: Klucel (hydroxypropylcellulose) (HPC)",174 % of control
same,T/C,"endpoint: median tumor weight (est.), dose: 6.0 mg/kg/injection, schedule: Q07DX005 (ip), vehicle: saline",112 % of control
same,T/C,"endpoint: median tumor weight (est.), dose: 12.0 mg/kg/injection, schedule: Q07DX005 (ip), vehicle: Klucel (hydroxypropylcellulose) (HPC)",80 % of control
same,T/C,"endpoint: median tumor weight (est.), dose: 12.0 mg/kg/injection, schedule: Q07DX005 (ip), vehicle: saline",88 % of control
same,T/C,"endpoint: median tumor weight (est.), dose: 24.0 mg/kg/injection, schedule: Q07DX005 (ip), vehicle: Klucel (hydroxypropylcellulose) (HPC)",466 % of control
same,T/C,"endpoint: median tumor weight (est.), dose: 48.0 mg/kg/injection, schedule: Q07DX005 (ip), vehicle: saline",44 % of control
